Test results reported in PubChem BioAssay AID1963433 (Molecular Pharmacology Branch, DTP, NCI, 2024).
Blank lines part the entries; values can stand above or below the compound they belong to.

Test system: 772245-204-R-J1-PDC complex spheroid growth
Test: Anticancer human tumor 772245-204-R-J1-PDC patient-derived rhabdomyosarcoma cell line growth inhibition [Asc]
Conditions: for IC50: curve of first compound; for viability, T/C: stronger effect = lower value
Protocol: Multicellular complex tumor spheroid response to apoptosis pathway targeting inhibitors Alrizomadlin, Pelcitoclax, and Dasminapant in combination with a variety of drugs and investigational agents in selected tumor cell lines
The MDM2 inhibitor alrizomadlin, the Bcl-2/Bcl-xL inhibitor pelcitoclax, and the IAPs inhibitor dasminapant were evaluated both individually and in combination with standard of care and investigational anticancer small molecules within a complex spheroid model of solid tumors. . Complex spheroids include a stromal component modeled by human endothelial cells (HUVEC) and fibroblasts modeled by human mesenchymal stem cells (MSCs). The concentration ranges selected for each drug and investigational agent were based upon clinically achievable concentrations if the clinical Cmax of the agent was known.
Compounds. The drugs and investigational agents: alrizomadlin (APG-115; NSC831270), pelcitoclax (APG-1252; NSC835773), dasminapant (APG-1387;NSC834197), TAK-243 (NSC785004), copanlisib (NSC809693), olaparib (NSC753686), talazoparib (NSC767125), cobimetinib (NSC 768068), eltanexor (KPT-8602, NSC 794443), abemaciclib (NSC 768073), sotorasib (NSC818433), adagrasib (NSC 831453), MRTX-1133 (NSC 836407), Iadademestat (ORY1001, NSC 806812), and RMC-4630 (NSC839698), were obtained from the NCI Developmental Therapeutics Program Chemical Repository. The FDA-approved anticancer drug set is available from the Developmental Therapeutics Program at https://dtp.cancer.gov/organization/dscb/obtaining/available plates.htm. […] The stock solutions were prepared in dimethyl sulfoxide (DMSO, Sigma-Aldrich, St. Louis, MO, cat. D2650) at 800-fold the tested concentration and stored at -70 degrees C prior to their use. All drugs and investigational agents were tested over a range starting from a high concentration at or near the clinical Cmax and decreasing in half-log increments. If the clinical Cmax for an agent had not been determined, the highest concentration tested was 10 microM.
The patient-derived cancer (PDC) cell lines include five colon adenocarcinomas: 186277-243-T-J2-PDC, 616215-338-R-J1-PDC, 439559-082-T-J2-PDC, 463943-066-T-J2-PDC, and 519858-162-T-J1-PDC; three pancreatic carcinomas: 323965-272-R-J2-PDC, 521955-158-R6-J3-PDC, and 521955-158-R2-J5-PDC; two uterine sarcomas: 327498-152-R-J2-PDC and 993429-296-R-J1-PDC; two rhabdomyosarcomas: 755483-174-R-J1-PDC and 772245-204-R-J1-PDC; two soft tissue sarcomas: 126254-015-R-J1-PDC and 494315-158-R-J1-PDC; two malignant fibrous histiocytomas: 317291-083-R-J1-PDC and 596521-263-R-J1-PDC; two breast carcinomas: 171881-019-R-J1-PDC and 885512-296-R-J2-PDC; and one ovarian carcinoma: 6556581-035-R-J-PDC were obtained from the NCI PDMR, (https://pdmr.cancer.gov). The established cell lines HSSY-2 synovial sarcoma (RRID:CVCL 8719), SYO-1 synovial sarcoma (RRID:CVCL_7146), MPNST malignant peripheral neural sheath tumor were obtained from the Sloan Kettering Institute. The following established cell lines were purchased from the American Type Culture Collection (ATCC, Manassas, VA), Sor the received from the NCI repository:, PANC-1 pancreatic carcinoma (CRL-1469, RRID:CVCL_0480), OVCAR-5 ovarian carcinoma (RRID:CVCL_1628), OVCAR-8 ovarian carcinoma (RRID:CVCL_1629), , MCF-7 breast carcinoma (CRL-12584, RRID:CVCL_0031), MDA-MB-231 breast carcinoma (CRL-12532, RRID:CVCL_0062), NCI-H1876 small cell lung carcinoma (CRL-5902, RRID:CVCL_1503), NCI-H510A small cell lung carcinoma (HTB-184, RRID:CVCL_1565), NCI-H1417 (CRL-5869, RRID:CVCL_1469), and NCI-H196 small cell lung carcinoma (CRL-5823, RRID:CVCL_1509). Dr. Peter Houghton (Greehey Children's Cancer Research Institute, University of Texas Health Science Center, San Antonio, TX) provided Rh-18 rhabdomyosarcoma (RRID:CVCL_1659). Pooled donor human umbilical vein endothelial cells (HUVEC, Lonza, cat. CC-2519) and human mesenchymal stem cells (hMSC, Lonza, cat. PT-2501) were purchased from Lonza (Walkersville, MD).
Cell Culture. […]

[1] = second compound 0.1 µM, first compound 0.0316 µM
[2] = second compound 0.1 µM, first compound 0.1 µM
[3] = second compound 0.1 µM, first compound 0.316 µM
[4] = second compound 0.1 µM, first compound 1 µM
[5] = second compound 0.316 µM, first compound 0.0316 µM
[6] = second compound 0.316 µM, first compound 0.1 µM
[7] = second compound 0.316 µM, first compound 0.316 µM
[8] = second compound 0.316 µM, first compound 1 µM
[9] = second compound 1 µM, first compound 0.0316 µM
[10] = second compound 1 µM, first compound 0.1 µM
[11] = second compound 1 µM, first compound 0.316 µM
[12] = second compound 1 µM, first compound 1 µM
[13] = second compound 3.16 µM, first compound 0.0316 µM
[14] = second compound 3.16 µM, first compound 0.1 µM
[15] = second compound 3.16 µM, first compound 0.316 µM
[16] = second compound 3.16 µM, first compound 1 µM
[17] = second compound 10 µM, first compound 0.0316 µM
[18] = second compound 10 µM, first compound 0.1 µM
[19] = second compound 10 µM, first compound 0.316 µM
[20] = second compound 10 µM, first compound 1 µM
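Note: compound exposure lasted seven days.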
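Throughout, for viability, T/C: 100% = DMSO vehicle control viability.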

IC50 (second compound 0.1 µM): 6320 nM
IC50 (second compound 0.316 µM): 2430 nM
IC50 (second compound 1 µM): < 31.6 nM
IC50 (second compound 3.16 µM): 57.9 nM
IC50 (second compound 10 µM): < 31.6 nM
SMILES: C=CC(=O)N1CCN(c2nc(=O)n(-c3c(C)ccnc3C(C)C)c3nc(-c4c(O)cccc4F)c(F)cc23)C(C)C1 (stereo not given) + Cc1c(S(C)(=O)=O)c(-c2cc(F)cc(N3CCN(c4ccc(NS(=O)(=O)c5ccc(NC(CCN6CCC(C(=O)OCCCP(=O)(O)O)CC6)CSc6ccccc6)c(S(=O)(=O)C(F)(F)F)c5)cc4)CC3)c2)c(-c2ccc(Cl)cc2)n1C(C)C
viability, T/C [1]: 85%
viability, T/C [2]: 79.7%
viability, T/C [3]: 89.5%
viability, T/C [4]: 67.7%
viability, T/C (second compound 0.1 µM, first compound 3.16 µM): 69.5%
viability, T/C (second compound 0.1 µM, first compound 10 µM): 38.9%
viability, T/C [5]: 66.9%
viability, T/C [6]: 69.2%
viability, T/C [7]: 68.2%
viability, T/C [8]: 59.9%
viability, T/C (second compound 0.316 µM, first compound 3.16 µM): 47.1%
viability, T/C (second compound 0.316 µM, first compound 10 µM): 11.8%
viability, T/C [9]: 49.9%
viability, T/C [10]: 43%
viability, T/C [11]: 44.9%
viability, T/C [12]: 29.3%
viability, T/C (second compound 1 µM, first compound 3.16 µM): 15.1%
viability, T/C (second compound 1 µM, first compound 10 µM): 15.1%
viability, T/C [13]: 41.8%
viability, T/C [14]: 62.3%
viability, T/C [15]: 37.9%
viability, T/C [16]: 26.5%
viability, T/C (second compound 3.16 µM, first compound 3.16 µM): 15.8%
viability, T/C (second compound 3.16 µM, first compound 10 µM): 5.71%
viability, T/C [17]: 48.5%
viability, T/C [18]: 41.3%
viability, T/C [19]: 41.3%
viability, T/C [20]: 30.6%
viability, T/C (second compound 10 µM, first compound 3.16 µM): 13.5%
viability, T/C (second compound 10 µM, first compound 10 µM): 6.87%

IC50 (second compound 0.1 µM): 673 nM
IC50 (second compound 0.316 µM): 364 nM
IC50 (second compound 1 µM): 350 nM
IC50 (second compound 3.16 µM): 224 nM
IC50 (second compound 10 µM): 342 nM
SMILES: O=C(c1ccc(F)c(F)c1Nc1ccc(I)cc1F)N1CC(O)([C@@H]2CCCCN2)C1 + Cc1c(S(C)(=O)=O)c(-c2cc(F)cc(N3CCN(c4ccc(NS(=O)(=O)c5ccc(NC(CCN6CCC(C(=O)OCCCP(=O)(O)O)CC6)CSc6ccccc6)c(S(=O)(=O)C(F)(F)F)c5)cc4)CC3)c2)c(-c2ccc(Cl)cc2)n1C(C)C
viability, T/C (second compound 0.1 µM, first compound 0.00316 µM): 85.4%
viability, T/C (second compound 0.1 µM, first compound 0.01 µM): 85.7%
viability, T/C [1]: 85%
viability, T/C [2]: 72.4%
viability, T/C [3]: 80.5%
viability, T/C [4]: 34.2%
viability, T/C (second compound 0.316 µM, first compound 0.00316 µM): 76.3%
viability, T/C (second compound 0.316 µM, first compound 0.01 µM): 76.7%
viability, T/C [5]: 64.4%
viability, T/C [6]: 67.5%
viability, T/C [7]: 55.9%
viability, T/C [8]: 19.9%
viability, T/C (second compound 1 µM, first compound 0.00316 µM): 61.1%
viability, T/C (second compound 1 µM, first compound 0.01 µM): 66%
viability, T/C [9]: 66.4%
viability, T/C [10]: 69%
viability, T/C [11]: 50.8%
viability, T/C [12]: 13.4%
viability, T/C (second compound 3.16 µM, first compound 0.00316 µM): 57.1%
viability, T/C (second compound 3.16 µM, first compound 0.01 µM): 60.7%
viability, T/C [13]: 56.6%
viability, T/C [14]: 59.7%
viability, T/C [15]: 45.9%
viability, T/C [16]: 8.31%
viability, T/C (second compound 10 µM, first compound 0.00316 µM): 40.2%
viability, T/C (second compound 10 µM, first compound 0.01 µM): 44.9%
viability, T/C [17]: 57.1%
viability, T/C [18]: 78.8%
viability, T/C [19]: 52.2%
viability, T/C [20]: 4.51%
